The values below are quoted from earlier work in patent US9005587B2, “Anti-bacterial and mineralizing calcium phosphate compositions” (New York University, priority 2011, dated 2015).

For this data set, the system named is bacteria. The conditions noted are these: in vitro; Rolla et al. 1975.

Turning to `F` [F−, fluoride], the “F− in solution needed to inhibit adsorption of bacteria on hydroxyapatite” value was “approximately 9,500 ppm”.
